The values below come from US8829014B2, “Thiazole and thiophene analogues, and their use in treating autoimmune diseases and cancers” (Board of Supervisors of Louisiana State University and …, priority 2006, dated 2014).

For the first experiment, the system named is carageenan-induced edema. The experiment can be described thus: Carrageenan-induced rat paw edema test (anti-inflammatory activity). The class given is in vivo, Sprague-Dawley rats. Also noted: % Protection: concentration or dose not given beside the values. The following applies: Rattus norvegicus, po, 3 h, carrageenan-induced rat paw edema; defined in Example 397; read-out: % Protection. Here is the method:
Sprague-Dawley rats, male and female, 150-250 g will be used in an edema test. Rats will be deprived of food but not water for 18 hours prior to the experiment. The test compounds will be administered with a blunt-tipped needle orally, 50 mg/kg, as a suspension in 0.1% sodium CMC (carboxymethylcellulose) vehicle. Alternatively, the test compounds will be injected intravenously, subcutaneously, or intraperitoneally. One hour later, 0.1 ml of a 1% carrageenan solution in saline will be injected in the sub-plantar region of the right hind paw of each rat. […] The reading will be repeated 3 hours later. The displacement readings give a measure of carageenan-induced edema. Any reduction in carageenan-induced edema with a test compound, as compared to saline control, is a measure of the anti-inflammatory activity of the test compound. The percentage protection at 50-mg/kg doses was calculated according to the following formula: % Protection=[(Control−Test)/Control]×100%.
Following treatment, the media from the VSMC and HUVEC incubations were removed, and the amount of lactate dehydrogenase (LDH) released into the medium was determined with a commercial kit and expressed as a % increase over vehicle-treated cells. HPT toxicity was determined by the ethidium homodimer (EthHD) uptake assay. […] The lead compounds were also tested in two pairs of cell lines from the skin or prostate, one tumorigenic and one non-tumorigenic, to test for differing toxicity or heightened sensitivity in the tumorigenic lines. The cells were treated for 48 h with vehicle (0.1% DMSO) or 10 μM of each drug candidate, and the viability of the cells was determined by the MTT assay, expressed as a % decrease in viability compared to vehicle-treated cells. The in vivo inflammation model measured the % inhibition of rat paw edema induced by carageenan injection.
For orientation: Carrageenan injected into the paw causes an acute inflammation.
As to `Cc1ccccc1-n1c(-c2sc(Nc3ccc(Cl)cc3)nc2C)nc2ccccc2c1=O` [Example 170, 2-[2-(4-Chlorophenylamino)-4-methyl-thiazol-5-yl]-3-o-tolyl-3H-quinazolin-4-one], the inhibition in vivo at 50 mg/kg is 45%.
The same measure, in the same setting: the figure for `Cc1ccccc1-n1c(-c2sc(Nc3ccc(Cl)cc3)nc2-c2ccccc2)nc2ccccc2c1=O` [Example 178, 2-[2-(4-Chloro-phenylamino)-4-phenyl-thiazol-5-yl]-3-o-tolyl-3H-quinazolin-4-one] is 51%.
Consider `CCOC(=O)Nc1nc(C)c(-c2nc3ccccc3c(=O)n2-c2ccc(C)cc2)s1` [Example 190, (4-Methyl-5-(4-oxo-3-p-tolyl-3,4-dihydro-quinazolin-2-yl)-thiazol-2-yl)-carbamic acid ethyl ester], for which the inhibition in vivo at 50 mg/kg was 24%.
Same read-out and setting: as for `COc1ccccc1-n1c(-c2sc(Nc3ccc(Cl)cc3)nc2C)nc2ccccc2c1=O` [Example 203, 2-[2-(4-Chlorophenylamino)-4-methyl-thiazol-5-yl]-3-(2-methoxyphenyl)-3H-quinazoline-4-one], the figure is 27%; as for `COc1ccccc1-n1c(-c2sc(Nc3ccc(Cl)cc3)nc2-c2ccccc2)nc2ccccc2c1=O` [Example 208, 2-[2-(4-Chloro-phenylamino)-4-phenyl-thiazol-5-yl]-3-(2-methoxyphenyl)-3H-quinazolin-4-one], 31%.
Same read-out and setting: as for `Cc1ccc(Nc2nc(C)c(-c3nc4ccccc4c(=O)n3-c3ccc(Cl)cc3)s2)cc1` [Example 247, 2-[2-(4-Methylphenylamino)-4-methyl-thiazol-5-yl]-3-(4-chloro-phenyl)-3H-quinazolin-4-one], the figure is 71.9%.
The same measure, in the same setting: as for `CCOC(=O)Nc1nc(C)c(-c2nc3ccccc3c(=O)n2-c2ccc(C(C)=O)cc2)s1` [Example 259, (4-Methyl-5-(4-oxo-3-(4-acetyl-phenyl)-3,4-dihydro-quinazolin-2-yl)-thiazol-2-yl)-carbamic acid ethyl ester], the figure is 69.7%.

The same experiment, now with this note: Rattus norvegicus, po, 3 h, rat paw edema, 50 mg/kg, reading 3 hours after carrageenan; [(Control−Test)/Control]×100%; read-out: % Protection P.
For the compound `O=C(c1ccncc1)c1cc(-c2ccc(Cl)cc2)c(N2CCOCC2)s1` [Example 87, [4-(4-Chloro-phenyl)-5-morpholin-4-yl-thiophen-2-yl]-pyridin-4-yl-methanone], the inhibition in vivo at 50 mg/kg turned out to be 35%.
Consider `COc1c(C)cc(-c2cc(-c3cccnc3)c(N3CCOCC3)s2)nc1C` [Example 88, 4-[5-(5-Methoxy-4,6-dimethyl-pyridin-2-yl)-3-pyridin-3-yl-thiophen-2-yl]-morpholine], for which the inhibition in vivo at 50 mg/kg was -18.1%.
Same read-out and setting: as for `COc1ccc(C(=O)c2cc(-c3cccnc3)c(N3CCOCC3)s2)cc1` [Example 92, (4-Methoxy-phenyl)-(5-morpholin-4-yl-4-pyridin-3-yl-thiophen-2-yl)methanone], the figure is 69%.
Still for that read-out and setting: as for `O=C(c1ccc(Cl)cc1)c1cc(-c2cccnc2)c(N2CCOCC2)s1` [Example 93, (4-Chloro-phenyl)-(5-morpholin-4-yl-4-pyridin-3-yl-thiophen-2-yl)-methanone], the figure is 0%; as for `O=C(c1cc(-c2cccnc2)c(N2CCOCC2)s1)c1ccc(Cl)cc1Cl` [Example 94, (2,4-Dichloro-phenyl)-(5-morpholin-4-yl-4-pyridin-3-yl-thiophen-2-yl)-methanone], -51.4%; as for `CC(=O)Nc1ccc(C(=O)c2cc(-c3cccnc3)c(N3CCOCC3)s2)cc1` [Example 97, N-[4-(5-Morpholin-4-yl-4-pyridin-3-yl-thiophen-2-carbonyl)-phenyl]-acetamide], 46.8%.
The same measure, in the same setting: as for `O=C(c1cccnc1)c1cc(-c2cccnc2)c(N2CCOCC2)s1` [Example 98, (5-Morpholin-4-yl-4-pyridin-3-yl-thiophen-2-yl)-pyridin-3-yl-methanone], the figure is 42%; as for `O=C(c1ccncc1)c1cc(-c2cccnc2)c(N2CCOCC2)s1` [Example 99, (5-Morpholin-4-yl-4-pyridin-3-yl-thiophen-2-yl)-pyridin-4-yl-methanone], 26%; as for `O=C(c1ccccc1)c1cc(-c2ccncc2)c(N2CCOCC2)s1` [Example 102, (5-Morpholin-4-yl-4-pyridin-4-yl-thiophene-2-yl)-phenyl-methanone], 52%.
Consider `COc1ccc(C(=O)c2cc(-c3ccncc3)c(N3CCOCC3)s2)cc1` [Example 104, (4-Methoxy-phenyl)-(5-morpholin-4-yl-4-pyridin-4-yl-thiophen-2-yl)-methanone], for which the inhibition in vivo at 50 mg/kg worked out at 43.5%.
In the case of `O=C(c1ccc(Cl)cc1)c1cc(-c2ccncc2)c(N2CCOCC2)s1` [Example 105, (4-Chloro-phenyl)-(5-morpholin-4-yl-4-pyridin-4-yl-thiophen-2-yl)-methanone], the inhibition in vivo at 50 mg/kg amounted to 47.2%.
Consider `O=C(c1cc(-c2ccncc2)c(N2CCOCC2)s1)c1ccc(Cl)cc1Cl` [Example 106, (2,4-Dichloro-phenyl)-(5-morpholin-4-yl-4-pyridin-4-yl-thiophen-2-yl)-methanone], for which the inhibition in vivo at 50 mg/kg was -75.2%.
On the same count and under the same terms, the figure for `CC(=O)Nc1ccc(C(=O)c2cc(-c3ccncc3)c(N3CCOCC3)s2)cc1` [Example 109, N-[4-(5-Morpholin-4-yl-4-pyridin-4-yl-thiophen-2-carbonyl)-phenyl]-acetamide] is -75.2%.
Regarding `O=C(c1cccnc1)c1cc(-c2ccncc2)c(N2CCOCC2)s1` [Example 110, (5-Morpholin-4-yl-4-pyridin-4-yl-thiophen-2-yl)-pyridin-3-yl-methanone], the inhibition in vivo at 50 mg/kg was -6.93%.
For the compound `O=C(c1ccncc1)c1cc(-c2ccncc2)c(N2CCOCC2)s1` [Example 111, (5-Morpholin-4-yl-4-pyridin-4-yl-thiophen-2-yl)-pyridin-4-yl-methanone], the inhibition in vivo at 50 mg/kg worked out at 59.1%.
The same measure, in the same setting: as for `CS(=O)(=O)c1ccc(-c2cc(C(=O)c3cc(-c4ccc(S(C)(=O)=O)cc4)c(N4CCOCC4)s3)sc2N2CCOCC2)cc1` [Example 112, Bis-[4-(4-methansulfonyl-phenyl)-5-morpholin-4-yl-thiophen-2-yl]-methanone], the figure is 55.6%; as for `CC(=O)Nc1ccc(-c2cc(C(=O)c3cc(-c4ccc(NC(C)=O)cc4)c(N4CCOCC4)s3)sc2N2CCOCC2)cc1` [Example 113, N-{4-{5-[4-(4-acetylamino-phenyl)-5-morpholin-4-yl-thiophene-2-carbonyl]-2-morpholin-4-yl-thiophene-3-yl}-phenyl)-acetamide], 45.5%.
On the same count and under the same terms, the figure for `O=C(c1cc(-c2ccc(Cl)cc2)c(N2CCOCC2)s1)c1cc(-c2ccc(Cl)cc2)c(N2CCOCC2)s1` [Example 114, Bis-[4-(4-chloro-phenyl)-5-morpholin-4-yl-thiophen-2-yl]-methanone] is 56.6%.
For the compound `COC(=O)Nc1nc(C)c(C(=O)c2sc(NC(=O)OC)nc2C)s1` [Example 123, Dimethyl[carbonyl-bis(4-methyl-1,3-thiazole-5,2-diyl)]biscarbamate], the inhibition in vivo at 50 mg/kg was 23.9%.
Still for that read-out and setting: the figure for `O=C(c1sc(Nc2ccc(Cl)cc2)nc1-c1ccccc1)c1sc(Nc2ccc(Cl)cc2)nc1-c1ccccc1` [Example 127, Bis-[2-(4-Chloro-phenylamino)-4-phenyl-thiazole-5-yl]-methanone] is 43.5%.
On the same count and under the same terms, the figure for `O=C(Nc1nc(-c2ccccc2)c(C(=O)c2sc(NC(=O)c3ccco3)nc2-c2ccccc2)s1)c1ccco1` [Example 129, Bis-[2-(2-Furoyl-amino)-4-phenyl-thiazole-5-yl]-methanone] is 55%.
Regarding `CCOC(=O)Nc1nc(-c2ccccc2)c(C(=O)c2sc(NC(=O)OCC)nc2-c2ccccc2)s1` [Example 131, Diethyl[carbonyl-bis(4-phenyl-1,3-thiazole-5,2-diyl)]biscarbamate], the inhibition in vivo at 50 mg/kg came to 69.8%.

Still in this experiment, the particulars now being: carrageenan-induced rat paw edema; defined in Example 397.
For the compound `O=c1c2ccccc2nc(-c2sc(Nc3ccc(Cl)cc3)nc2-c2ccccc2)n1-c1ccccc1Cl` [Example 238, 2-[2-(4-Chlorophenylamino)-4-phenyl-thiazol-5-yl]-3-(2-Chloro-phenyl)1-3H-quinazolin-4-one], the “% Protection” value is listed as 61%.

Staying with this experiment, now noted: rat paw edema, 50 mg/kg, reading 3 hours after carrageenan; [(Control−Test)/Control]×100%; 50 mg/kg.
As to `Cc1nc(NC(=O)c2ccccc2)sc1C(=O)c1sc(NC(=O)c2ccccc2)nc1C` [Example 121, Bis-[2-(2-Benzoyl-amino)-4-methyl-thiazole-5-yl]-methanone], the “% Protection P” value was determined as 62%.
Regarding `Cc1nc(NC(=O)c2ccccc2)sc1C(=O)c1sc(NC(=O)c2ccccc2)nc1C` [Example 128, Bis-[2-(2-Benzoyl-amino)-4-methyl-thiazole-5-yl]-methanone], the “% Protection P” value is 34%.
